Results on eight compounds are retold here after patent publication US4659726A, “Novel 4,5-Bis (4-methoxyphenyl)-2-(pyrrol-2-yl) thiazoles and pharmaceutical composition containing the same” (Kanebo, Ltd., priority 1984, dated 1987).

Data set [1] concerns Platelet aggregation (collagen). In words: Platelet aggregation inhibitory activity, ex vivo after oral administration to guinea pigs, collagen as aggregating agent. Type of data set: in vivo, Hartley strain male guinea pigs. The following applies: Cavia porcellus, oral, guinea pig, blood collected after 3 hours, 100 μg/ml collagen suspension (50 μl), 50% inhibitory rate, read-out: Platelet aggregation inhibitory activity Collagen ED50. As to the method: (§1) Hartley strain male guinea pigs (weighing 300-350 g, one group: three animals) were fasted overnight, and to the animals were orally administered a solution or suspension of the test compounds in corn oil-10% arabic gum. […] The citrated blood thus obtained was centrifuged at 1,700 rpm for 10 minutes, and a platelet-rich plasma (PRP) was obtained from the supernatant. After isolating PRP, the remaining blood was further centrifuged at 3,000 rpm for 10 minutes, and a platelet-poor plasma (PPP) was obtained from the supernatant.
(§2) The PRP (450 μl) thus obtained was incubated at 37° C. for 3 minutes, and thereto was added 1.0 mM sodium arachidonate (50 μl) as an aggregating agent, and then the platelet aggregation thereof was measured with Platelet Aggregation Profiler® (Model PAP-3, manufactured by Bio Data Corp.) while using the PPP obtained above as a blank. As a control, as to animals to which no test compound was administered, the platelet aggregation rate was measured likewise.
(§3) The platelet aggregation inhibitory rate was calculated by the following equation. [formula]
Moreover, the above method was repeated except that 100 μg/ml collagen suspension (50 μl) was used as an aggregating agent instead of sodium arachidonate.

Data set [2] has as its system Platelet aggregation (arachidonate). Put plainly: Platelet aggregation inhibitory activity, ex vivo after oral administration to guinea pigs, sodium arachidonate as aggregating agent. In kind it is in vivo, Hartley strain male guinea pigs. The following applies: Cavia porcellus, oral, guinea pig, blood collected after 3 hours, 1.0 mM sodium arachidonate (50 μl), 50% inhibitory rate, read-out: Platelet aggregation inhibitory activity Arachidonate ED50. The procedure: as §1, §2, §3

A short description of data set [3]: in vivo. The following applies: mouse, oral, ddy male mice, deaths counted at 10 days, Weil method, read-out: Acute toxicity LD50. From the text:
ddy male mice (weighing 18-23 g, one group: 5 animals) were fasted overnight, and thereto was orally administered a suspension of the test compounds in 1% arabic gum solution.

Take `C#CCOC(=O)Cn1cccc1-c1nc(-c2ccc(OC)cc2)c(-c2ccc(OC)cc2)s1` [Ex. 30, Propargyl 2-[4,5-bis(4-methoxyphenyl)thiazol-2-yl]pyrrole-1-acetate]: the ED50 amounted to 0.068 mg/kg in data set [1] and 0.039 mg/kg in data set [2]. For the same compound, the LD50 at 240 h in data set [3] is above 3000 mg/kg.

Turning to `COc1ccc(-c2nc(-c3cccn3CC(=O)OCc3ccccc3)sc2-c2ccc(OC)cc2)cc1` [Ex. 31, benzyl 2-[4,5-bis(4-methoxyphenyl)thiazol-2-yl]pyrrole-1-acetate], the ED50 came out at 0.16 mg/kg in data set [1] and 0.11 mg/kg in data set [2]. Further, the LD50 at 240 h in data set [3] is above 3000 mg/kg.

For the compound `CCOCn1cccc1-c1nc(-c2ccc(OC)cc2)c(-c2ccc(OC)cc2)s1` [Ex. 36, 4,5-Bis(4-methoxyphenyl)-2-(1-ethoxymethylpyrrol-2-yl)thiazole], the ED50 amounted to 0.98 mg/kg in data set [1] and 0.45 mg/kg in data set [2]. Further, the LD50 at 240 h in data set [3] is above 3000 mg/kg.

Regarding `CCCOCn1cccc1-c1nc(-c2ccc(OC)cc2)c(-c2ccc(OC)cc2)s1` [Ex. 37, 4,5-Bis(4-methoxyphenyl)-2-(1-n-propoxymethylpyrrol-2-yl)thiazole], the ED50 in data set [1] is 0.61 mg/kg; in data set [2], 0.49 mg/kg. In data set [3], the LD50 at 240 h is above 3000 mg/kg.

For `CCOCCn1cccc1-c1nc(-c2ccc(OC)cc2)c(-c2ccc(OC)cc2)s1` [Ex. 38, 4,5-bis(4-methoxyphenyl)-2-[1-(2-ethoxyethyl)pyrrol-2-yl]thiazole], the results for the ED50 in data set [1] and in data set [2] were 0.29 mg/kg and 0.09 mg/kg, respectively. Moreover, the LD50 at 240 h in data set [3] is above 3000 mg/kg.

With `C=COCCn1cccc1-c1nc(-c2ccc(OC)cc2)c(-c2ccc(OC)cc2)s1` [Ex. 39, 4,5-bis(4-methoxyphenyl)-2-[1-(2-vinyloxyethyl)pyrrol-2-yl]thiazole], the figures for the ED50 in data set [1] and in data set [2] were 0.49 mg/kg and 0.33 mg/kg, respectively. Also, the median lethal dose (LD50) at 240 h in data set [3] is above 3000 mg/kg.

For the compound `CCSCCn1cccc1-c1nc(-c2ccc(OC)cc2)c(-c2ccc(OC)cc2)s1` [Ex. 40, 4,5-bis(4-methoxyphenyl)-2-[1-(2-ethylthioethyl)pyrrol-2-yl]thiazole], the ED50 in data set [1] was 0.51 mg/kg; in data set [2], 0.41 mg/kg. Besides, in data set [3], the LD50 at 240 h was above 3000 mg/kg.

Turning to `CCOCCCn1cccc1-c1nc(-c2ccc(OC)cc2)c(-c2ccc(OC)cc2)s1` [Ex. 41, 4,5-bis(4-methoxyphenyl)-2-[1-(3-ethoxypropyl)pyrrol-2-yl]thiazole], the values for the ED50 in data set [1] and in data set [2] were 0.35 mg/kg and 0.3 mg/kg, respectively. In addition, in data set [3], the LD50 at 240 h is above 3000 mg/kg.
